Experiments:
[1] = Cytotoxicity against CEF cells by MTT assay; format: cell-based, Gallus gallus; settings: chicken
Influenza A virus = assay: Antiviral activity against Influenza A virus (A/Korea/KBNP-0028/2000(H9N2)) infected in chicken egg after 5 days by hemagglutinination assay; format: functional, organism-based; settings: 120 h
[2] = Selectivity index, ratio of CC50 for CEF cells to EC50 for Influenza A virus (A/Korea/KBNP-0028/2000(H9N2)); format: toxicity, cell-based; settings: chicken

| SMILES | CC50 [1] [µM] | EC50 (Influenza A virus) [µM] | selectivity ratio [2] |
| --- | --- | --- | --- |
| O=C(/C=C/CCc1ccc(O)c(O)c1)CCc1ccc(O)c(O)c1 [DEHYDROHIRSUTANONOL] | > 500 | > 350 | – |
| O=C(CCc1ccc(O)c(O)c1)C[C@H](CCc1ccc(O)c(O)c1)O[C@@H]1OC[C@@H](O)[C@H](O)[C@H]1OC(=O)/C=C/c1ccc(O)cc1 [OREGONOYL A] | > 500 | > 350 | – |
| CC(=O)N[C@H]1[C@H]([C@H](O)[C@H](O)CO)OC(C(=O)O)=C[C@@H]1N=C(N)N [ZANAMIVIR] | > 753 | – | > 44 |
| O=C(CCc1ccc(O)c(O)c1)C[C@@H](O)CCc1ccc(O)c(O)c1 [HIRSUTANONOL] | > 500 | > 350 | – |
| O=C(CCc1ccc(O)cc1)C[C@H](CCc1cccc(O)c1)O[C@@H]1OC[C@@H](O)[C@H](O)[C@H]1O | > 560 | 56.1 | > 10 |
| COc1cc(/C=C/C(=O)O[C@H]2[C@H](O[C@@H](CCc3ccc(O)c(O)c3)CC(=O)CCc3ccc(O)c(O)c3)OC[C@@H](O)[C@@H]2O)ccc1O [OREGONOYL B] | > 500 | > 350 | – |
| O=C(CCc1ccc(O)c(O)c1)C[C@H](CCc1cccc(O)c1)O[C@@H]1OC[C@@H](O)[C@H](O)[C@H]1O [ALNUSIDE A] | > 500 | > 350 | – |
